Results from patent US12649717B2, “Cyanine-derived compound, preparation method therefor, and application thereof” (priority 2020, dated 2026).

Columns and labels:
HeLa cells = assay: Phototoxicity assay: HeLa cell viability (PI staining) after LED irradiation; details: for Cell viability under 1-minute irradiation / Cell viability under 5-minute irradiation / Cell viability under 15-minute irradiation: PI viability counting after 2 hours at 37° C.
Experimental: HeLa cells were irradiated with corresponding LED light (same light intensity for the same channel) for different periods of time under a widefield fluorescence microscope. The irradiated cells were incubated for 2 hours in a cell incubator at 37° C. Then, the cells were stained with propidium iodide (PI) for viability counting.

Rat cardiomyocytes = assay: 3D-laser confocal time-series imaging of labeled rat cardiomyocytes; format: cell-based; details: 250 nM, 10-15 minutes staining
Experimental: Then, different microscopic imaging experiments were carried out.

Row | SMILES | Cell viability under 1-minute irradiation (HeLa cells) [%] | Cell viability under 5-minute irradiation (HeLa cells) [%] | Cell viability under 15-minute irradiation (HeLa cells) [%] | Phototoxicity relative to commercial dyes (times less phototoxic) (HeLa cells; HeLa cells, versus MTR CMXRos, MTDR (b53 also versus non-optimized compounds of 1-6)) | Phototoxicity comparison (in words) (HeLa cells; cell viability after continuous irradiation under high light intensity) | Time sequences after which labeled cells violently contracted to death (Rat cardiomyocytes) [time sequences]
1 | CC1=[N+](CCN)c2ccc3ccccc3c2C1(C)C.[Br-] [Probe 1-6] | 100 | 99 | 95 | about 5 times | lower phototoxicity | 
2 | C[N+]1=C(/C=C/C=C/C=C2\N(Cc3ccc(CCl)cc3)c3ccccc3C2(C)C)C(C)(C)c2ccccc21.[Cl-] [MitoTracker Deep Red FM] | 100 | 0 | 0 |  |  | 8
3 | CC1(C)C(/C=C/C=C2/N(CCOC(=O)c3ccccc3)c3ccc4ccccc4c3C2(C)C)=[N+](CCOC(=O)c2ccccc2)c2ccc3ccccc3c21.[Br-] [Probe 1-6-1] | 100 | 95 | 25 |  |  | 
4 | ClCc1ccc(C2=c3cc4c5c(c3Oc3c2cc2c6c3CCCN6CCC2)CCC[N+]=5CCC4)cc1.[Cl-] [MitoTracker Red CMXRos] | 86.9 | 0 | 0 |  |  | 
